{"source": "patent US9434704B2", "about": "“Compositions and methods for the treatment of neurological degenerative disorders” (CELLIX BIO PRIVATE LIMITED, priority 2012, dated 2016)", "key": {"[1]": {"settings": "rat, in vivo, 8 mg/kg"}, "[2]": {"experiment": "in vivo", "settings": "female, Wistar, rat, ip, 8 mg/kg"}}, "note": "Where “and” joins values, the source holds several entries; their conditions need not be identical. Identical values can stand only once.", "data": [{"smiles": "CC(OC(=O)CCCC[C@]1(C)CCSS1)OC(=O)Nc1nc2ccc(OC(F)(F)F)cc2s1", "note": "(stereo partly shown) [Formula II (2-1)]", "values": [{"measurement": "time to reach spinal cord (SC)", "setting": "[1]; female, Wistar", "result": "≤ 15", "unit": "min"}, {"measurement": "time of Cmax in SC", "setting": "[1]", "result": 1.5, "unit": "h"}, {"measurement": "absorption after I.P. administration", "setting": "[1]; ip", "result": "readily absorbed"}, {"measurement": "time of Cmax in brain", "setting": "[1]; ip", "result": 0.7, "unit": "h"}, {"measurement": "time of Cmax in plasma", "setting": "[1]; ip", "result": 0.5, "unit": "h"}, {"measurement": "Cmax", "setting": "[2]", "result": "10200 ng/g and 3380 ng/mL"}, {"measurement": "half-life", "setting": "[2]; t1/2 in brain", "result": 13.2, "unit": "h"}, {"measurement": "half-life", "setting": "[2]; t1/2 in cervical SC", "result": 13.2, "unit": "h"}, {"measurement": "half-life", "setting": "[2]; t1/2 in plasma", "result": 11, "unit": "h"}, {"measurement": "half-life", "setting": "[2]; t1/2 in thoracic SC", "result": 11, "unit": "h"}]}]}
